The results in this text go back to patent publication US9650334B2 (AbbVie Deutschland GmbH & Co. KG, priority 2013, dated 2017).

pKi: −log10 of the molar value.

This test has as its target T1, human GlyT1c transporter (Homo sapiens, UniProt P48067).
T1 sequence (P48067 1-706): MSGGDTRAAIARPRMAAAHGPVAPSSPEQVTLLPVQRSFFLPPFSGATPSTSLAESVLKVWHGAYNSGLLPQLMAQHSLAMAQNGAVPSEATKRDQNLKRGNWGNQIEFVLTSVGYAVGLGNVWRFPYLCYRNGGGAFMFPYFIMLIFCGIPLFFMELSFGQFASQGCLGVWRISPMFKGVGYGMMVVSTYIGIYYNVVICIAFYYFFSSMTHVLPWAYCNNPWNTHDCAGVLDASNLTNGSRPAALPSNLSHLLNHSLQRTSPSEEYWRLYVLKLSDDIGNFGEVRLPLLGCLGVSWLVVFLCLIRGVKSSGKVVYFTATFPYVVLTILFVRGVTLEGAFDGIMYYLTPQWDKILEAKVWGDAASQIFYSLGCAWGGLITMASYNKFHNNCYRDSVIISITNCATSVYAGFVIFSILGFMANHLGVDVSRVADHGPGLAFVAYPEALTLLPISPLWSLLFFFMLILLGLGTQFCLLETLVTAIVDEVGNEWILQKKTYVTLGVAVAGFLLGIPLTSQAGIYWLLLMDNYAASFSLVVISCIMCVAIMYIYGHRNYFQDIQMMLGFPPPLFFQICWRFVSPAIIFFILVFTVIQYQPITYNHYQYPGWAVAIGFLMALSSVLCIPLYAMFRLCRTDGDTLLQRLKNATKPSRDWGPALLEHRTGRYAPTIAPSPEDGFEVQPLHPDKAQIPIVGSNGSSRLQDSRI
Briefly: Radioligand binding assays using recombinant CHO cell membranes expressing human GlyT1. As to conditions: radioligand binding to human GlyT1c transporter-expressing CHO cell membranes.

For the molecule `CCS(=O)(=O)N1C[C@@H](NC(=O)c2ccc(C(F)(F)F)cc2)[C@H](c2ccccc2)C1` (relative stereo) [Example 122, N-[trans-1-(ethylsulfonyl)-4-phenylpyrrolidin-3-yl]-4-(trifluoromethyl)benzamide], the negative logarithm of the Ki (pKi) (Ki) was at least 5.00.

In the case of `Cn1cnc(S(=O)(=O)N2C[C@H](NCc3cnc(Br)s3)[C@@H](c3ccccc3)C2)c1` [Example 438, (3R,4S)-N-[(2-bromo-1,3-thiazol-5-yl)methyl]-1-[(1-methyl-1H-imidazol-4-yl)sulfonyl]-4-phenylpyrrolidin-3-amine], the negative-log Ki (pKi) (Ki) is at least 6.00.

On to `CCCCCN(C)[C@H]1CN(S(=O)(=O)c2cn(C)cn2)C[C@@H]1C1OCCCO1` [Example 907, (3R,4S)-4-(1,3-dioxan-2-yl)-N-methyl-1-[(1-methyl-1H-imidazol-4-yl)sulfonyl]-N-pentylpyrrolidin-3-amine], for which the pKi (Ki) was at least 6.00.

For the molecule `Cc1cc(N[C@H]2CN(S(=O)(=O)c3cn(C)cn3)C[C@@H]2C2OCCCO2)ccc1F` [Example 923, (3R,4S)-4-(1,3-dioxan-2-yl)-N-(4-fluoro-3-methylphenyl)-1-[(1-methyl-1H-imidazol-4-yl)sulfonyl]pyrrolidin-3-amine], under “Ki”, the pKi was at least 7.00.

For the molecule `Cn1cnc(S(=O)(=O)N2C[C@H](NCCCCC3OCC(C)(C)CO3)[C@@H](c3ccc(F)cc3)C2)c1` [Example 684], for the setting “Ki”, the pKi was at least 6.00.

On to `CCCCCN(CCCCC)[C@H]1CN(S(=O)(=O)c2cn(C)cn2)C[C@@H]1C1OCCCO1` [Example 908, (3R,4S)-4-(1,3-dioxan-2-yl)-1-[(1-methyl-1H-imidazol-4-yl)sulfonyl]-N,N-dipentylpyrrolidin-3-amine], for which, for the setting “Ki”, the pKi is at least 5.00.

With `Cn1cc(S(=O)(=O)N2CC3c4ccccc4CC3(Nc3cc(C(F)(F)F)ncn3)C2)nn1` (stereo not drawn) [Example 891, 2-[(1-methyl-1H-1,2,3-triazol-4-yl)sulfonyl]-N-[6-(trifluoromethyl)pyrimidin-4-yl]-2,3,3a,8-tetrahydroindeno[1,2-c]pyrrol-8a(1H)-amine], the negative-log Ki (pKi) (Ki) is at least 7.00.

On to `Cn1cc(S(=O)(=O)N2C[C@H](Nc3cccc(OC(F)(F)F)c3)[C@@H](C3OCCCO3)C2)nn1` [Example 896, (3R,4S)-4-(1,3-dioxan-2-yl)-1-[(1-methyl-1H-1,2,3-triazol-4-yl)sulfonyl]-N-[3-(trifluoromethoxy)phenyl]pyrrolidin-3-amine], for which, where the note is “Ki”, the pKi is at least 8.00.

Take `Cn1cnc(S(=O)(=O)N2CC(Nc3cccc(OC(F)(F)F)c3)c3ccccc32)c1` (stereo not drawn) [Example 887, 1-[(1-methyl-1H-imidazol-4-yl)sulfonyl]-N-[3-(trifluoromethoxy)phenyl]-2,3-dihydro-1H-indol-3-amine]: the negative-log Ki (pKi) (Ki) is at least 7.00.

As for `C[C@H]1C[C@H](C)OC([C@H]2CN(S(=O)(=O)c3cn(C)cn3)C[C@@H]2Nc2cccc(OC(F)(F)F)c2)O1` (stereo partly drawn) [Example 922, (3R,4S)-4-[(4S,6S)-4,6-dimethyl-1,3-dioxan-2-yl]-1-[(1-methyl-1H-imidazol-4-yl)sulfonyl]-N-[3-(trifluoromethoxy)phenyl]pyrrolidin-3-amine], where the note is “Ki”, the negative logarithm of the Ki (pKi) is at least 8.00.

Regarding `CCCCCCN1CCCC2CN(S(=O)(=O)c3cn(C)cn3)CC21` (stereo not drawn) [Example 872, 1-hexyl-6-[(1-methyl-1H-imidazol-4-yl)sulfonyl]octahydro-1H-pyrrolo[3,4-b]pyridine], the pKi (Ki) is below 5.00.

Turning to `Cn1cnc(S(=O)(=O)N2CC(C(=O)NCc3ccc(F)c(F)c3)C3(CCCCC3)C2)c1` (stereo not drawn) [Example 882, N-(3,4-difluorobenzyl)-2-[(1-methyl-1H-imidazol-4-yl)sulfonyl]-2-azaspiro[4.5]decane-4-carboxamide], the negative logarithm of the Ki (pKi) (Ki) is at least 6.00.

As for `Cn1cnc(S(=O)(=O)N2CC(Nc3cccc(OC(F)(F)F)c3)C(c3ccc(F)cn3)C2)c1` (stereo not drawn) [Example 895, 4-(5-fluoropyridin-2-yl)-1-[(1-methyl-1H-imidazol-4-yl)sulfonyl]-N-[3-(trifluoromethoxy)phenyl]pyrrolidin-3-amine], for the setting “Ki”, the pKi is at least 8.00.

Take `Cc1nc(CN[C@H]2CN(S(=O)(=O)c3cn(C)cn3)C[C@@H]2c2ccccc2)sc1Br` [Example 559, (3R,4S)-N-[(5-bromo-4-methyl-1,3-thiazol-2-yl)methyl]-1-[(1-methyl-1H-imidazol-4-yl)sulfonyl]-4-phenylpyrrolidin-3-amine]: where the note is “Ki”, the pKi is at least 6.00.

Consider `Cn1cnc(S(=O)(=O)N2C[C@H](Nc3cccc(OC(F)F)c3)[C@@H](C3OCCCO3)C2)c1` [Example 925, (3R,4S)-N-[3-(difluoromethoxy)phenyl]-4-(1,3-dioxan-2-yl)-1-[(1-methyl-1H-imidazol-4-yl)sulfonyl]pyrrolidin-3-amine], for which the pKi (Ki) is at least 8.00.

For the molecule `Cn1cnc(S(=O)(=O)N2CC3CCCN(Cc4ccc(C(F)(F)F)cc4Cl)C3C2)c1` (stereo not drawn) [Example 879, 1-[2-chloro-4-(trifluoromethyl)benzyl]-6-[(1-methyl-1H-imidazol-4-yl)sulfonyl]octahydro-1H-pyrrolo[3,4-b]pyridine], the pKi (Ki) was at least 6.00.

Regarding `Cn1cnc(S(=O)(=O)N2[C@@H]3CC[C@H]2[C@H](c2ccc(F)cc2)[C@H]3Nc2ccc(F)c(C(F)(F)F)c2)c1` [Example 877, (1R,2R,3R,4S)-3-(4-fluorophenyl)-N-[4-fluoro-3-(trifluoromethyl)phenyl]-7-[(1-methyl-1H-imidazol-4-yl)sulfonyl]-7-azabicyclo[2.2.1]heptan-2-amine], the negative logarithm of the Ki (pKi) (Ki) is at least 5.00.

On to `CCCCC1CN([C@H]2CN(S(=O)(=O)c3cn(C)cn3)C[C@@H]2c2ccc(F)cc2)C(=O)O1` (stereo partly drawn) [Example 863, 5-butyl-3-{(3R,4S)-4-(4-fluorophenyl)-1-[(1-methyl-1H-imidazol-4-yl)sulfonyl]pyrrolidin-3-yl}-1,3-oxazolidin-2-one], for which the pKi (Ki) was at least 6.00.

In the case of “2,2-difluoro-N-{(3R,4S)-4-(4-fluorophenyl)-1-[(1-methyl-1H-imidazol-4-yl)sulfonyl]pyrrolidin-3-yl}pentanamide [Example 700]”, the pKi was at least 5.00.

Consider `Cn1cnc(S(=O)(=O)N2C[C@@H](c3ccccc3)[C@](C)(Nc3cc(C(F)(F)F)ccn3)C2)c1` (relative stereo) [Example 388, N-{Trans-3-methyl-1-[(1-methyl-1H-imidazol-4-yl)sulfonyl]-4-phenylpyrrolidin-3-yl}-4-(trifluoromethyl)pyridin-2-amine], for which the negative-log Ki (pKi) (Ki) is at least 7.00.

As for `Cn1cnc(S(=O)(=O)N2C[C@H](NCc3ccc(F)cc3)[C@@H](C3OCCCO3)C2)c1` [Example 906, (3R,4S)-4-(1,3-dioxan-2-yl)-N-(4-fluorobenzyl)-1-[(1-methyl-1H-imidazol-4-yl)sulfonyl]pyrrolidin-3-amine], the pKi (Ki) was at least 6.00.

Consider `Cc1cccc(N[C@H]2CN(S(=O)(=O)c3cn(C)cn3)C[C@@H]2C2OCCCO2)c1` [Example 917, (3R,4S)-4-(1,3-dioxan-2-yl)-1-[(1-methyl-1H-imidazol-4-yl)sulfonyl]-N-(3-methylphenyl)pyrrolidin-3-amine], for which the pKi (Ki) is at least 7.00.

With `Cn1cnc(S(=O)(=O)N2C[C@H](NCc3cccc(OC(F)(F)F)c3)[C@@H](C3OCCCO3)C2)c1` [Example 905, (3R,4S)-4-(1,3-dioxan-2-yl)-1-[(1-methyl-1H-imidazol-4-yl)sulfonyl]-N-[3-(trifluoromethoxy)benzyl]pyrrolidin-3-amine], the pKi (Ki) is at least 6.00.

Take `Cn1cnc(S(=O)(=O)N2C[C@H](NCc3ccc(C(F)(F)F)cc3Cl)[C@@H](C3OCCCO3)C2)c1` [Example 904, (3R,4S)-N-[2-chloro-4-(trifluoromethyl)benzyl]-4-(1,3-dioxan-2-yl)-1-[(1-methyl-1H-imidazol-4-yl)sulfonyl]pyrrolidin-3-amine]: the pKi (Ki) was at least 8.00.

For `Cn1cnc(S(=O)(=O)N2CC3CCCCC3(NCc3ccc(C(F)(F)F)cc3)C2)c1` (stereo not drawn) [Example 884, 2-[(1-methyl-1H-imidazol-4-yl)sulfonyl]-N-[4-(trifluoromethyl)benzyl]octahydro-3aH-isoindol-3a-amine], under “Ki”, the pKi was at least 7.00.

Regarding `Cn1cnc(S(=O)(=O)N2C[C@H](Nc3ccc(F)c(OC(F)(F)F)c3)[C@@H](C3OCCCO3)C2)c1` [Example 924, (3R,4S)-4-(1,3-dioxan-2-yl)-N-[4-fluoro-3-(trifluoromethoxy)phenyl]-1-[(1-methyl-1H-imidazol-4-yl)sulfonyl]pyrrolidin-3-amine], under “Ki”, the negative-log Ki (pKi) was at least 8.00.

As to “Trans-N-[4-chloro-3-(trifluoromethyl)phenyl]-1-[(1-methyl-1H-imidazol-4-yl)sulfonyl]-4-[(3S)-tetrahydro-2H-pyran-3-yl]pyrrolidin-3-amine [Example 792]”, the pKi is at least 5.00.
